Measured values as given in patent publication US20260028365A1 (BIOGEN MA INC., priority 2022, published 2026).
Read-outs that look alike come from different tables or passages of the source.

Assays:
Tyk2 = Tyk2 (Homo sapiens (Human), UniProt P29597); experiment: pSTAT4 Cell Assay (MSD, NK92 cells); assay type: cell-based
JH2 domain of human Tyk2 = JH2 domain of human Tyk2 (Homo sapiens (Human), UniProt P29597); experiment: JH2 Biochemical Assay (TR-FRET probe displacement); assay type: binding
Chain of JH2 domain of human Tyk2 (P29597 575-876): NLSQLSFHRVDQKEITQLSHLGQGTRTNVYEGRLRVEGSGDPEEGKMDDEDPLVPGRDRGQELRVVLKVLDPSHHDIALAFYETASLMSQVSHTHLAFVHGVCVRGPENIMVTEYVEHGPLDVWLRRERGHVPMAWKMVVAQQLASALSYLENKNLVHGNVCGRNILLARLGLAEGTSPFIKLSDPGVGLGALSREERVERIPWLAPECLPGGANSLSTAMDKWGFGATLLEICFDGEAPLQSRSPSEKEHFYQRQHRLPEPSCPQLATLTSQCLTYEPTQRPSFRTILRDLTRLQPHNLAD

[1] = TR-FRET probe displacement, JH2 domain of human Tyk2
[2] = JH2 domain of human Tyk2, TR-FRET probe displacement
[3] = TR-FRET probe displacement, JH2 domain

Chain of Tyk2 (P29597 whole entry, the tested form may be a part): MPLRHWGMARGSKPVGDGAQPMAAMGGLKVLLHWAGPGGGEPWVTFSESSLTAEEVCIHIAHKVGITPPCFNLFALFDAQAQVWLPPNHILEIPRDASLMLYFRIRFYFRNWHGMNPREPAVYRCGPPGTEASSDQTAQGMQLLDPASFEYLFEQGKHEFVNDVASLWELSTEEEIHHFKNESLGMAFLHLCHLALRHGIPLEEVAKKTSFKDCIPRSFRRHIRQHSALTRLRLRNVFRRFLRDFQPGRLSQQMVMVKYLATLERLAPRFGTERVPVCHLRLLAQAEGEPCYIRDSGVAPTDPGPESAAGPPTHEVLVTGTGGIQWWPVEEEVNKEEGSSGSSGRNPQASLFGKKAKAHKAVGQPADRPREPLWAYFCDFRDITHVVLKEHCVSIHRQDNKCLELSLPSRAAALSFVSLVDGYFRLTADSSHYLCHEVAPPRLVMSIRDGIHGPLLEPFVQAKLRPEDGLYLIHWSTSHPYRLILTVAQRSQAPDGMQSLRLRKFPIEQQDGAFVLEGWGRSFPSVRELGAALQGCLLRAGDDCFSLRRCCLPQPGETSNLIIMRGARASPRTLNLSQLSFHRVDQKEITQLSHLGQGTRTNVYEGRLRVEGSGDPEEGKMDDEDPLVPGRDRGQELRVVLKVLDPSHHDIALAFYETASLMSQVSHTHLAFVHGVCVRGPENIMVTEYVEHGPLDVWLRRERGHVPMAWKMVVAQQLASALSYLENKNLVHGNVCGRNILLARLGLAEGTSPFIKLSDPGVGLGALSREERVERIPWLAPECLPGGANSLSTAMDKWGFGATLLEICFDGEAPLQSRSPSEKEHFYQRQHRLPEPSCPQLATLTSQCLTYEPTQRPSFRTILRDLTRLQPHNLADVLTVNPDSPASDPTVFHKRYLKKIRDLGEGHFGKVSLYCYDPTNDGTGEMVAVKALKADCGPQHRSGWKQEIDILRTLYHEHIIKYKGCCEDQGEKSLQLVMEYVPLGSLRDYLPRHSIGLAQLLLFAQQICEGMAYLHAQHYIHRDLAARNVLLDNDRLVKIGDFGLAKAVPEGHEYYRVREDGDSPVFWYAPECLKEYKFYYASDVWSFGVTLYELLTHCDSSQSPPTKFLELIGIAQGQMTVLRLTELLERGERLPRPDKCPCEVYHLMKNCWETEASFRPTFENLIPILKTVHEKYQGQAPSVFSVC

| Compound | IC50 (Tyk2; MSD) [nM] | IC50 (JH2 domain of human Tyk2; [1]) [nM] | IC50 (JH2 domain of human Tyk2; [2]) [nM] | IC50 (Tyk2) [nM] | IC50 (JH2 domain of human Tyk2; [3]) [nM] |
| --- | --- | --- | --- | --- | --- |
| COc1cncc(-c2cc(Nc3cc(NC(C)=O)ncc3OC)nc(C(C)(F)F)n2)c1 [Example 296, N-(4-((2-(1,1-difluoroethyl)-6-(5-methoxypyridin-3-yl)pyrimidin-4-yl)amino)-5-methoxypyridin-2-yl)acetamide] | 100 to 1000 | 10 to 100 |  |  |  |
| COCCc1cc(-c2cnc(NC(C)=O)cc2Nc2cc(C)nc(C(C)(F)F)n2)ncn1 [Example 745, N-(4-((2-(1,1-difluoroethyl)-6-methylpyrimidin-4-yl)amino)-5-(6-(2-methoxyethyl)pyrimidin-4-yl)pyridin-2-yl)acetamide] | 10 to 100 |  | ≤ 10 |  |  |
| CCOc1cnc(NC(=O)COC)cc1Nc1cc(C)nc(C(C)(F)F)n1 [Example 26, N-(4-((2-(1,1-difluoroethyl)-6-methylpyrimidin-4-yl)amino)-5-ethoxypyridin-2-yl)-2-methoxyacetamide] | 10 to 100 | ≤ 10 |  |  |  |
| COCc1cc(-c2cnc(NC(C)=O)cc2Nc2cc(C)nc(C(C)(F)F)n2)ncn1 [Example 665, N-(4-((2-(1,1-difluoroethyl)-6-methylpyrimidin-4-yl)amino)-5-(6-(methoxymethyl)pyrimidin-4-yl)pyridin-2-yl)acetamide] | 10 to 100 |  | ≤ 10 |  |  |
| COCCn1ncc(-c2cnc(NC(C)=O)cc2Nc2cc(OC3CC3)nc(C(C)(F)F)n2)n1 [Example 587, N-(4-((6-cyclopropoxy-2-(1,1-difluoroethyl)pyrimidin-4-yl)amino)-5-(2-(2-methoxyethyl)-2H-1,2,3-triazol-4-yl)pyridin-2-yl)acetamide] | ≤ 10 |  | ≤ 10 |  |  |
| CC(=O)Nc1cc(Nc2cc(C)nc(C(C)(F)F)n2)c(-c2nccs2)cn1 [Example 605, N-(4-((2-(1,1-difluoroethyl)-6-methylpyrimidin-4-yl)amino)-5-(thiazol-2-yl)pyridin-2-yl)acetamide] | 10 to 100 |  | ≤ 10 |  |  |
| COCCOc1cnc(NC(C)=O)cc1Nc1nccc(C(C)(F)F)n1 [Example 75, N-(4-((4-(1,1-difluoroethyl)pyrimidin-2-yl)amino)-5-(2-methoxyethoxy)pyridin-2-yl)acetamide] | 100 to 1000 | ≤ 10 |  |  |  |
| CC(=O)Nc1cc(Nc2cc(C)nc(C(C)(F)F)n2)c(OCc2ccc3c(c2)OCO3)cn1 [Example 484, N-(5-(benzo[d][1,3]dioxol-5-ylmethoxy)-4-((2-(1,1-difluoroethyl)-6-methylpyrimidin-4-yl)amino)pyridin-2-yl)acetamide] | 10 to 100 |  | ≤ 10 |  |  |
| COc1cnc(NC(C)=O)cc1Nc1cc(-c2cnn(CC3CC3)c2)nc(C(C)(F)F)n1 [Example 378, N-(4-((6-(1-(cyclopropylmethyl)-1H-pyrazol-4-yl)-2-(1,1-difluoroethyl)pyrimidin-4-yl)amino)-5-methoxypyridin-2-yl)acetamide] | 10 to 100 |  | ≤ 10 |  |  |
| CC(=O)Nc1cc(Nc2cncc(C(C)(C)F)n2)c(-c2ncc(F)cn2)cn1 [Example 189, N-(4-((6-(2-fluoropropan-2-yl)pyrazin-2-yl)amino)-5-(5-fluoropyrimidin-2-yl)pyridin-2-yl)acetamide] | 10 to 100 | 10 to 100 |  |  |  |
| COc1ccnc(COc2cnc(NC(C)=O)cc2Nc2cc(C)nc(C(C)(F)F)n2)n1 [Example 345, N-(4-((2-(1,1-difluoroethyl)-6-methylpyrimidin-4-yl)amino)-5-((4-methoxypyrimidin-2-yl)methoxy)pyridin-2-yl)acetamide] | 100 to 1000 | 10 to 100 |  |  |  |
| COc1cnc(NC(C)=O)cc1Nc1cc(-c2cnn(C3CCC3)c2)nc(C(C)(F)F)n1 [Example 374, N-(4-((6-(1-cyclobutyl-1H-pyrazol-4-yl)-2-(1,1-difluoroethyl)pyrimidin-4-yl)amino)-5-methoxypyridin-2-yl)acetamide] | 100 to 1000 |  | 10 to 100 |  |  |
| COc1cnnc(-c2cnc(NC(C)=O)cc2Nc2cc(C)nc(C(C)(F)F)n2)c1 [Example 753, N-(4-((2-(1,1-difluoroethyl)-6-methylpyrimidin-4-yl)amino)-5-(5-methoxypyridazin-3-yl)pyridin-2-yl)acetamide] |  |  |  | ≥ 1000 | ≤ 10 |
| COCCOc1cnc(NC(C)=O)cc1Nc1cccc(C2CCOC2)n1 (centres unmarked) [Example 72, N-(5-(2-methoxyethoxy)-4-((6-(tetrahydrofuran-3-yl)pyridin-2-yl)amino)pyridin-2-yl)acetamide] | 100 to 1000 | ≤ 10 |  |  |  |
| CC(=O)Nc1cc(Nc2ccnc(C(C)(C)F)c2)c(-c2ncc(F)cn2)cn1 [Example 216, N-(4-((2-(2-fluoropropan-2-yl)pyridin-4-yl)amino)-5-(5-fluoropyrimidin-2-yl)pyridin-2-yl)acetamide] | 100 to 1000 | 10 to 100 |  |  |  |
| CC(=O)Nc1cc(Nc2cc(C)nc(C(C)(F)F)n2)c(OC[C@]23CO[C@](CF)(C2)C3)cn1 [Example 421, N-(4-((2-(1,1-difluoroethyl)-6-methylpyrimidin-4-yl)amino)-5-(((1r,4s)-1-(fluoromethyl)-2-oxabicyclo[2.1.1]hexan-4-yl)methoxy)pyridin-2-yl)acetamide] | 10 to 100 |  | ≤ 10 |  |  |

| Compound | IC50 (Tyk2; MSD) [nM] | IC50 (JH2 domain of human Tyk2; [1]) [nM] | IC50 (JH2 domain of human Tyk2; [2]) [nM] | IC50 (Tyk2) [nM] | IC50 (JH2 domain of human Tyk2; [3]) [nM] |
| --- | --- | --- | --- | --- | --- |
| CC(=O)Nc1cc(Nc2cc(C)nc(C(C)(F)F)n2)c(-c2cc(N(C)C)ncn2)cn1 [Example 247, N-(4-((2-(1,1-difluoroethyl)-6-methylpyrimidin-4-yl)amino)-5-(6-(dimethylamino)pyrimidin-4-yl)pyridin-2-yl)acetamide] | ≥ 1000 | ≤ 10 |  |  |  |
| CC(=O)Nc1cc(Nc2ccnc(C(C)(F)F)n2)c(-c2ncn(C)n2)cn1 [Example 165, N-(4-((2-(1,1-difluoroethyl)pyrimidin-4-yl)amino)-5-(1-methyl-1H-1,2,4-triazol-3-yl)pyridin-2-yl)acetamide] | 100 to 1000 | 10 to 100 |  |  |  |
| COCC1(COc2cnc(NC(C)=O)cc2Nc2cc(C)nc(C(C)(F)F)n2)CC1 [Example 326, N-(4-((2-(1,1-difluoroethyl)-6-methylpyrimidin-4-yl)amino)-5-((1-(methoxymethyl)cyclopropyl)methoxy)pyridin-2-yl)acetamide] | 10 to 100 | ≤ 10 |  |  |  |
| CC(=O)Nc1cc(Nc2cc(C)nc(C(C)(F)F)n2)c(OCCF)cn1 [Example 404, N-(4-((2-(1,1-difluoroethyl)-6-methylpyrimidin-4-yl)amino)-5-(2-fluoroethoxy)pyridin-2-yl)acetamide] | 10 to 100 |  | ≤ 10 |  |  |
| CC(=O)Nc1cc(Nc2cc(C)nc(C(C)(F)F)n2)c(OCc2cnc(C3CC3)o2)cn1 [Example 344, N-(5-((2-cyclopropyloxazol-5-yl)methoxy)-4-((2-(1,1-difluoroethyl)-6-methylpyrimidin-4-yl)amino)pyridin-2-yl)acetamide] | 10 to 100 | ≤ 10 |  |  |  |
| CC(=O)Nc1cc(Nc2cc(C)nc(C(C)(F)F)n2)c(-c2cnc(CN3CCOCC3)cn2)cn1 [Example 793, N-(4-((2-(1,1-difluoroethyl)-6-methylpyrimidin-4-yl)amino)-5-(5-(morpholinomethyl)pyrazin-2-yl)pyridin-2-yl)acetamide] |  |  |  | ≤ 10 | ≤ 10 |
| CC(=O)Nc1cc(Nc2cc(C)nc(C(C)(F)F)n2)c(OCc2cnn(C)c2C)cn1 [Example 138, N-(4-((2-(1,1-difluoroethyl)-6-methylpyrimidin-4-yl)amino)-5-((1,5-dimethyl-1H-pyrazol-4-yl)methoxy)pyridin-2-yl)acetamide] | ≥ 1000 | 100 to 1000 |  |  |  |
| CC(=O)Nc1cc(Nc2cc(C)nc(C(C)(F)F)n2)c(-c2nccc(C3CC3)n2)cn1 [Example 666, N-(5-(4-cyclopropylpyrimidin-2-yl)-4-((2-(1,1-difluoroethyl)-6-methylpyrimidin-4-yl)amino)pyridin-2-yl)acetamide] | 100 to 1000 |  | ≤ 10 |  |  |
| CC(=O)Nc1cc(Nc2ccnc(C(C)(F)F)n2)c(-c2nc3c(s2)COCC3)cn1 [Example 573, N-(4-((2-(1,1-difluoroethyl)pyrimidin-4-yl)amino)-5-(6,7-dihydrO4H-pyrano[4,3-d]thiazol-2-yl)pyridin-2-yl)acetamide] | ≤ 10 |  | ≤ 10 |  |  |
| CCn1cc(COc2cnc(NC(C)=O)cc2Nc2cc(C)nc(C(C)(F)F)n2)cn1 [Example 509, N-(4-((2-(1,1-difluoroethyl)-6-methylpyrimidin-4-yl)amino)-5-((1-ethyl-1H-pyrazol-4-yl)methoxy)pyridin-2-yl)acetamide] | 10 to 100 |  | ≤ 10 |  |  |
| CC(=O)Nc1cc(Nc2cc(C)nc(C(C)(F)F)n2)c(-c2cnc(C)o2)cn1 [Example 600, N-(4-((2-(1,1-difluoroethyl)-6-methylpyrimidin-4-yl)amino)-5-(2-methyloxazol-5-yl)pyridin-2-yl)acetamide] | 100 to 1000 |  | 10 to 100 |  |  |
| CC(=O)Nc1cc(Nc2cc(C)nc(C(C)(F)F)n2)c(-c2coc(C)n2)cn1 [Example 578, N-(4-((2-(1,1-difluoroethyl)-6-methylpyrimidin-4-yl)amino)-5-(2-methyloxazol-4-yl)pyridin-2-yl)acetamide] | ≤ 10 |  | ≤ 10 |  |  |
| CCCn1ccc(-c2cnc(NC(C)=O)cc2Nc2ccnc(C(C)(F)F)n2)n1 [Example 705, N-(4-((2-(1,1-difluoroethyl)pyrimidin-4-yl)amino)-5-(1-propyl-1H-pyrazol-3-yl)pyridin-2-yl)acetamide] | ≤ 10 |  | ≤ 10 |  |  |
| CC(=O)Nc1cc(Nc2cc(C)nc(C(C)(F)F)n2)c([C@@H]2C[C@@H]2C#N)cn1 (relative stereo) [Example 810, rel-N-(5-((1R,2S)-2-cyanocyclopropyl)-4-((2-(1,1-difluoroethyl)-6-methylpyrimidin-4-yl)amino)pyridin-2-yl)acetamide] |  |  |  | ≥ 1000 | 10 to 100 |
| CC(=O)Nc1cc(Nc2cc(C)nc(C(C)(F)F)n2)c(OCC2CCCO2)cn1 (centres unmarked) [Example 481, N-(4-((2-(1,1-difluoroethyl)-6-methylpyrimidin-4-yl)amino)-5-((tetrahydrofuran-2-yl)methoxy)pyridin-2-yl)acetamide] | 10 to 100 |  | ≤ 10 |  |  |
